Assay results from patent US7442380B2, “Treatment of diseases caused by viral infection” (Apodemus AB, priority 2003, dated 2008).

Tests used:
[1] = system: Ljungan virus; assay: Ljungan virus in tissue culture of Vero cells with Pleconaril (CPE); assay type: cell-based
Source text: (§1) Ljungan virus was first tested in tissue culture of Vero cells in combination with Pleconaril. 1,6 micrograms of active substance per ml of the tissue culture medium were used. This dose was used in all experiment below where it says “with Pleconaril”.
10 000 000 tissue culture infectious doses (TCID) of Ljungan virus treated with Pleconaril give full cytopathogenic effect (CPE) in 4 days while the control culture with no Pleconaril show full CPE in 3 days.
(§2) For a control picornavirus known not to be sensitive to Pleconaril no inhibition of any amount of the virus can be detected. […] This means that Ljungan virus is semi-sensitive” or “semi-resistant” to Pleconaril.

[2] = system: control picornavirus known not to be sensitive to Pleconaril; assay: Tissue culture with Pleconaril, control picornavirus known not to be sensitive; assay type: cell-based; conditions: any amount of the virus, 1,6 micrograms Pleconaril per ml
Source text: as §1, §2

[3] = system: picornavirus known to be sensitive to Pleconaril; assay: Tissue culture with Pleconaril, picornavirus known to be sensitive; assay type: cell-based; conditions: 10 000 000 TCID, 1,6 micrograms Pleconaril per ml
Source text: as §1, §2

[4] = system: Bank voles with diabetes; assay: Diabetic bank voles, oral Pleconaril, glucose tolerance test; assay type: in vivo; conditions: 100 mg/kg per day for seven days orally in drinking water; GTT 60 min, day before treatment vs 15 days later; none of six control animals
Procedure: Bank voles with diabetes were randomised into 2 groups one treated with Pleconaril and one not receiving any treatment. Treated animals were given 100 mg Pleconaril per kg body weight per day seven days. The drug was administered orally in the drinking water. All animals were subjected to a glucose tolerance test the day before the treatment and again 15 days later. Glucose tolerance test was performed by administrating 2 grams of glucose per kg BW intraperitoneally. The blood glucose levels were measured after 60 min.

[5] = system: arctic fox with severe encephalitis (Ljungan virus); assay: Encephalitis in arctic fox treated with Pleconaril; assay type: in vivo; conditions: one arctic fox, 50 mg/kg twice daily for 7 days
Source text: The arctic fox in Sweden is a species close to being extinct. The reason for this is unknown. Nordens Ark has a breeding program for arctic foxes with the aim to save the species. However, several animals in captivity have developed encephalitis and died. Nordens Ark has lost almost all their animals. The encephalitis is a slow progressing disease often starting with stereotypic behaviour followed by visual problem, loss of smell and loss of muscle coordination. The condition is slowly progressing over several months leading to the deaths of the animal. No spontaneous recovery has been seen in any of the arctic foxes observed.
Ljungan virus was isolated from the brain of one arctic fox suffering from encephalitis. Ljungan virus RNA was also detected by PCR in the brain and the heart of the same individual. Ljungan virus could also be detected in the brain and the heart by immunohistochemistry.
One arctic fox with severe encephalitis was treated with 50 mg/kg of Pleconaril twice daily for 7 days.

[6] = system: Ljungan virus (LV145 SL); assay: Antiviral therapy of diabetes in male offspring of Ljungan virus infected laboratory mice; assay type: in vivo, CD1 mice; conditions: for frequency of animals with diabetes, as measured by GTT: vs infected untreated mice
Procedure: Glucose tolerance test was performed to determine the diagnosis of diabetes. In this test 2 g glucose per kg body weight was administrated intraperitoneally (as 100 mg glucose/ml solution). Blood glucose was measured (Medisence Precision PCx Abbott Laboratories) just before the glucose injection and at 60 and 120 minutes post administration. Diabetes was defined as a blood glucose level above 200 mg/dL in a glucose tolerance test at 120 min.
Abdominal fat in male mice was measured by dissecting out the bilateral scrotal fat cushion. The total weight of both fat cushions was used.
The serum insulin level was measured using a rat insulin high range ELISA kit (Mercodia AB, Uppsala, Sweden) according to the instructions of the manufacturer. Islets prepared from the pancreas were assayed for insulin release and glucose oxidation assay described elsewhere (Blixt, M., Niklasson, B. & Sandler, S. Characterization of β-cell function of pancreatic islets isolated from bank voles developing glucose intolerance/diabetes: an animal model showing features of both type 1 and type 2 diabetes mellitus. Manuscript submitted).
Pregnant outbred CD1 mice (CD-1 (ICR) Br Charles River laboratories, Germany) were infected intraperitoneally with 1000 ID50 units of LV145 SL two days after conception. Control animals were given an injection with the same volume with normal saline at the same time. All female mice were kept in individual cages and followed for the development of gestational diabetes, pregnancy outcome and development of diabetes in the offspring. In half of the infected pregnant mice, mild stress was induced by adding glucose (100 g/liter) to drinking water, performing weekly weights and glucose tolerance testing during the last week of pregnancy. The uninfected control group of pregnant mice was also subjected to stress. Antiviral therapy using LV-specific murine antisera or the oral antiviral compound Pleconaril (200 mg per kg body weight) administrated once a day for 4 consecutive days or a combination of antiserum and Pleconaril was initiated at 5 weeks of age (11-13). At 15 weeks animals were tested by a glucose tolerance test (GTT). Also, serum insulin level and abdominal fat were measured and the histopathology of the pancreas was examined.
Antiviral therapy using LV-specific murine antisera (group IV) or the oral antiviral compound Pleconaril (200 mg per kg body weight) administrated once a day for 4 consecutive days (group III) or a combination of antiserum and Pleconaril (group V) was initiated at 5 weeks of age.
Mice were treated with a combination of Pleconaril and antisera and interferon α. Interferon a was given as 2×10^7 IU/kg/day during three consecutive days during the same week Pleconaril and specific immunoglobulin was administrated. […] In addition, the combination therapy (Pleconaril, antisera, and interferon) normalize the amount of abdominal fat and the level of serum insulin, reducing them to normal levels.

With `Cc1cc(CCCOc2c(C)cc(-c3noc(C(F)(F)F)n3)cc2C)on1` [Pleconaril, 3-[3,5-dimethyl-4-[[3-(3-methyl-5-isoxazolyl)propyl]oxy]phenyl]-5-(trifluoromethyl)-1,2,4-oxadiazole] the “time to full cytopathogenic effect (CPE)” value ([1]; 10 000 000 TCID of Ljungan virus, Vero cells, 1,6 micrograms Pleconaril per ml, control culture without Pleconaril full CPE in 3 days) was 4 days, the “inhibition of Ljungan virus” value ([1]; 100 TCID of Ljungan virus, Vero cells, 1,6 micrograms Pleconaril per ml) was “fully inhibited” and the “sensitivity of Ljungan virus to Pleconaril (conclusion)” value ([1]; Vero cells, 1,6 micrograms per ml) was “semi-sensitive”. The “inhibition of control picornavirus” value [2] was “no inhibition”, the “inhibition of sensitive picornavirus (CPE)” value [3] was “inhibited (no CPE)” and the “animals improved with blood glucose levels decreasing more than 200 mg per dl” value [4] was 2 out of six. For the same molecule, the “clinical condition after the treatment” value [5] was “improved”, the “course after several months” value [5] was “signs and symptoms of encephalitis came back” and the “No. with blood glucose > 200 md/dL at 120 min” value ([6]; Table 2, GTT at 15 weeks, therapy started at 5 weeks, number of mice, infected no treatment 8 of 11) was 1. The “No. with blood glucose > 200 md/dL at 120 min (percent)” value ([6]; Table 2, GTT at 15 weeks, infected no treatment 73%) was 9%, the “Blood glucose at 60 min” value ([6]; Table 2, GTT at 15 weeks, infected no treatment 242) was 211 and the Serum insulin ([6]; Table 2, at 15 weeks, infected no treatment 5.04) was 4.15 µg/L. The “Abdominal fat in gram” value ([6]; Table 2, male mice at 15 weeks, infected no treatment 2.9) was 2.1 gram, the “No. Hyperglycemic” value ([6]; Table 7, infected mice, number of mice, no treatment 8 of 11) was 1 and the “No. Hyperglycemic (percent)” value ([6]; Table 7, infected mice, no treatment 73%) was 9%. For the same molecule, the Abdominal fat ([6]; Table 7, infected mice, spread in brackets, no treatment 2.90 (0.84)) was 2.20 (1.0) g, the Serum insulin ([6]; Table 7, infected mice, spread in brackets, no treatment 5.04 (2.30)) was 4.15 (5.03) μg/L and the “Blood glucose @ 60 minutes” value ([6]; Table 7, infected mice, spread in brackets, no treatment 242 (75)) was 211 (79) mg/dL. The “frequency of animals with diabetes, as measured by GTT” value [6] was “reduced the frequency of animals with diabetes” and the “frequency of animals with diabetes, as measured by GTT” value ([6]; listed as Pleconaril alone) was “reduced the frequency of diabetes”.
